Results on 3 compounds are retold here after PMC12606464, “Investigating NFE2L1 activators for targeted protein aggregate clearance: a follow-up study” (RSC Medicinal Chemistry, 2025).

The subject of the assay is NFE2L1 pathway. Description: 3×PSMA4-ARE-LUC dual luciferase reporter assay in HEK293 cells. Format: cell-based, human. The settings on record: for EC50 / fold induction at 5 µM: Homo sapiens; for EC50: HEK293; for fold induction at 5 µM: 16 h, HEK293, luminescence relative to DMSO-treated cells, read-out: NFE2L1 activation [5 μM]. The essentials:
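HEK293 cells carrying the 3×PSMA4-ARE luciferase reporter (with pRL-TK) were treated with compounds for 16 h, then luciferase activity was measured. Values are fold change in luminescence over DMSO-treated cells; EC50 from four-parameter logistic or bell-shaped fits with 1/Y^2 weighting.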

Where [1] appears, read: PSMA4-ARE-luc2P reporter, four-parameter logistic or bell-shaped model, order of models not stated, read-out: EC50 (first value).
Setting [2] is: [Agonist] vs. Response, variable slope (four parameters), weighting 1/Y^2, Fig. S1.
[3] abbreviates: Bell-shaped fit, X is concentration, weighting 1/Y^2, Fig. S1.
Where [4] appears, read: Bell-shaped fit, X is concentration, weighting 1/Y^2, Fig. S1, read-out: EC50_1 (best-fit).
Where [5] appears, read: PSMA4-ARE-luc2P reporter, four-parameter logistic or bell-shaped model, order of models not stated, read-out: EC50.

Read-outs that look alike come from different tables or passages of the source.

On to `COc1ccc(/C=C2\CC(N)C/C(=C\c3ccc(OC)c(OC)c3)C2=O)cc1OC` (stereo not drawn) [RUN-81], for which the fold induction at 5 µM was 2.1. Further, the EC50 under setting [1] was 10.4 µM. For the same compound, under setting [2], the “Bottom (best-fit)” value is 0.95, the “Hillslope (best-fit)” value worked out at 2.70, the “Span (best-fit)” value is 18.71 and the “Top (best-fit)” value stood at 19.66. The “logEC50 (best-fit)” value under setting [2] is given as 1.02.
With `COc1ccc(/C=C2\CC(NC(=O)C3CCCC3)C/C(=C\c3ccc(OC)c(OC)c3)C2=O)cc1OC` (stereo not drawn) [RUN-89], the fold induction at 5 µM came to 11.7. Under setting [3], the “Dip (best-fit)” value turned out to be 19.12, the “Plateau1 (best-fit)” value was 1.124, the “Plateau2 (best-fit)” value was determined as 5.392 and the “nH1 (best-fit)” value was -4.123. For the same compound, the “nH2 (best-fit)” value under setting [3] is -7.321. Under setting [4], the EC50 is 4.89 µM. Further, under setting [5], the EC50 worked out at 4.9 µM. Further, the EC50 under setting [1] stood at 3.1 µM. In addition, under setting [2], the “Bottom (best-fit)” value is 1.08, the “Hillslope (best-fit)” value was 7.14, the “Span (best-fit)” value was found to be 6.12 and the “Top (best-fit)” value came to 7.20. Besides, under setting [2], the “logEC50 (best-fit)” value is 0.49.
With `COc1ccc(/C=C2\CC(NC(=O)c3ccccn3)C/C(=C\c3ccc(OC)c(OC)c3)C2=O)cc1OC` (stereo not drawn) [RUN-94], the fold induction at 5 µM was determined as 19.4. For the same compound, under setting [3], the “Dip (best-fit)” value was determined as 8.602, the “Plateau1 (best-fit)” value is listed as -2.174, the “Plateau2 (best-fit)” value came out at 11.95 and the “nH1 (best-fit)” value is “Unstable”. Moreover, the “nH2 (best-fit)” value under setting [3] is given as 18.05. Besides, the EC50 under setting [4] amounted to 3.8 µM. In addition, the EC50 under setting [5] came out at 3.8 µM. Moreover, under setting [1], the EC50 was 3.8 µM. Moreover, the EC50 ([Agonist] vs. Response, variable slope (four parameters), weighting 1/Y^2, Fig. S1, read-out: EC50 (best-fit)) is 3.79 µM. Further, under setting [2], the “Bottom (best-fit)” value amounted to 1.13, the “Hillslope (best-fit)” value amounted to 55.77, the “Span (best-fit)” value amounted to 9.24 and the “Top (best-fit)” value was 10.37. In addition, the “logEC50 (best-fit)” value under setting [2] stood at 0.58.
